Experimental data reported in patent publication US7393868B2, “AMPA receptor potentiators” (Eli Lilly and Company, priority 2005, dated 2008).

Target: T1, human iGluR4 (Homo sapiens, UniProt P48058)
T1 construct: expressed in transfected cells; host or cells: HEK293
Test: Whole-cell voltage clamp potentiation of glutamate-evoked current in HEK293 cells stably expressing human iGluR4
Format: cell-based
Settings: whole-cell voltage clamp at −60 mV, potentiation of current evoked by 1 mM glutamate, Hill equation fit
Excerpt: HEK293 cells stably expressing human iGluR4(obtained as described in European Patent Application Publication No. EP-A1-0583917) are used in the electrophysiological characterization of AMPA receptor potentiators. The extracellular recording solution contains (in mM): 140 NaCl, 5 KCl, 10 HEPES, 1 MgCl2, 2 CaCl2, 10 glucose, pH=7.4 with NaOH, 295 mOsm kg−1. The intracellular recording solution contains (in mM): 140 CsCl, 1 MgCl2, 10 HEPES, (N-[2-hydroxyethyl]piperazine-N1-[2-ethanesulfonic acid]) 10 EGTA (ethylene-bis(oxyethylene-nitrilo)tetraacetic acid), pH=7.2 with CsOH, 295 mOsm kg−1. With these solutions, recording pipettes have a resistance of 2-3 MΩ. Using the whole-cell voltage clamp technique (Hamill et al. (1981) Pflügers Arch., 391: 85-100), cells are voltage-clamped at −60 mV and control current responses to 1 mM glutamate are evoked. Responses to 1 mM glutamate are then determined in the presence of test compound. Compounds are deemed active in this test if, at a test concentration of 10 μM or less, they produce a greater than 10% increase in the value of the current evoked by 1 mM glutamate.
In order to determine the potency of test compounds, the concentration of the test compound, both in the bathing solution and co-applied with glutamate, is increased in half log units until the maximum effect was seen. Data collected in this manner are fit to the Hill equation, yielding an EC50 value, indicative of the potency of the test compound. Reversibility of test compound activity is determined by assessing control glutamate 1 mM responses. Once the control responses to the glutamate challenge are re-established, the potentiation of these responses by 100 μM cyclothiazide is determined by its inclusion in both the bathing solution and the glutamate-containing solution. In this manner, the efficacy of the test compound relative to that of cyclothiazide can be determined.

T1 sequence (P48058 21-902): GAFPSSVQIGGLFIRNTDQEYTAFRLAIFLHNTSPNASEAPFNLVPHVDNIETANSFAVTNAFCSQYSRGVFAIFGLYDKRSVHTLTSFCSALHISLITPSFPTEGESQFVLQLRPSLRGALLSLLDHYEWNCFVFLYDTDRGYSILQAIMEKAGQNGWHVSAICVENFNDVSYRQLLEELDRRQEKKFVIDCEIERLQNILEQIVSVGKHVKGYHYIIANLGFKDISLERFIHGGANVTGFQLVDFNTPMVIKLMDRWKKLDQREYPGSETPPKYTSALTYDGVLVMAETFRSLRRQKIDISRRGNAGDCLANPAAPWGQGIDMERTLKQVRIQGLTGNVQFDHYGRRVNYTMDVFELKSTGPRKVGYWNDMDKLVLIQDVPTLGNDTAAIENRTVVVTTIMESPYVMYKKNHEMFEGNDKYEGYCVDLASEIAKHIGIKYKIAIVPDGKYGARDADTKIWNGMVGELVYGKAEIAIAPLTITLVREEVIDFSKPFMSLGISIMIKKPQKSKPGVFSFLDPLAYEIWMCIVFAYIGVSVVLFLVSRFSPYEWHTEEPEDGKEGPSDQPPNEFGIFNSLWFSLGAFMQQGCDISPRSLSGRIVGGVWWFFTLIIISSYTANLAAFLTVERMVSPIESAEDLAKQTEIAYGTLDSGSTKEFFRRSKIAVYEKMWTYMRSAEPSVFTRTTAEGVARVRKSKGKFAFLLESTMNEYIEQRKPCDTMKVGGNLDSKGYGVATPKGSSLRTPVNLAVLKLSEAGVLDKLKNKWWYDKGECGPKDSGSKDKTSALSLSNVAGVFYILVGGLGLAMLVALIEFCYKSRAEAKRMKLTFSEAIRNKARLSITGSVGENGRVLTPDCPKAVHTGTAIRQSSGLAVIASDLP

Row | EC50 | SMILES
1 | 977 nM | COc1cc(C(=O)O)ccc1-c1ccc(-c2ccccc2NS(=O)(=O)C(C)C)cc1 [Example 46, 2″-Methoxy-2-(propane-2-sulfonylamino)-[1,1′;4′,1″]terphenyl-4″-carboxylic acid]
2 | 2460 nM | CC(C)S(=O)(=O)Nc1cnccc1-c1ccc(-c2ccc(C(=O)O)cc2C#N)cc1 [Example 51, 2-Cyano-4′-[3-(propane-2-sulfonylamino)-pyridin-4-yl]-biphenyl-4-carboxylic acid]
3 | 151 nM | CC(C)S(=O)(=O)Nc1ccsc1-c1ccc(-c2cc(F)c(O)c(F)c2C#N)cc1 [Example 56, Propane-2-sulfonic acid [2-(2′-cyano-3′,5′-difluoro-4′-hydroxy-biphenyl-4-yl)-thiophen-3-yl]-amide]
4 | 188 nM | CC(C)S(=O)(=O)Nc1ccsc1-c1ccc(-c2ccc(C(=O)O)cc2C#N)cc1 [Example 72, 2-Cyano-4′-[3-(propane-2-sulfonylamino)-thiophen-2-yl]-biphenyl-4-carboxylic acid]

Row | SMILES | EC50
5 | CC(C)S(=O)(=O)Nc1ccsc1-c1ccc(-c2cc(F)c(O)c(F)c2)cc1 [Example 11, Propane-2-sulfonic acid [2-(3′,5′-difluoro-4′-hydroxy-biphenyl-4-yl)-thiophen-3-yl]-amide] | 720 nM
